Test results reported in patent US8933107B2, “Pesticide thiazolyloxy substituted phenylamidine derivatives” (Bayer Cropscience AG, priority 2005, dated 2015).

Assays:
Sphaerotheca fuliginea = test: In vivo protective test on Sphaerotheca fuliginea (cucumbers); conditions: Podosphaera fuliginea, 168 h, 100 ppm of active ingredient, evaluated 7 days after inoculation, read-out: efficacy
Alternaria solani = test: In vivo protective test on Alternaria solani (leaf spot of tomato); conditions: 168 h, 500 ppm of active ingredient, evaluated 7 days after inoculation, read-out: efficacy
[1] = system: Erysiphe graminis f. sp. hordei; test: In vivo preventive test on Erysiphe gramini (powdery mildew on barley); conditions: Blumeria graminis, 168 h, 1000 ppm of active ingredient, evaluated 7 days after inoculation, read-out: efficacy
Podosphaera leucotricha = test: In vivo protective test on Podosphaera leucotricha (apples); conditions: topical, 240 h, 100 ppm of active ingredient, evaluated 10 days after inoculation, read-out: efficacy
physchem = conditions: reversed-phase HPLC column (C 18)
[2] = system: Puccinia recondita f. Sp. tritici; test: In vivo preventive test on Puccinia recondita f. Sp. tritici (wheat brown rust); conditions: topical, 240 h, 1000 ppm of active ingredient, evaluated 10 days after inoculation, read-out: efficacy
Heliotis virescens = Heliotis virescens test (HELIVI spray application); type: in vivo; conditions: soybean leaf sections, concentration and time not stated

Question: For CCN(C)/C=N/c1cc(C)c(Oc2nc(Cl)c(Cl)s2)cc1C [Compound 1.1, N′-{4-[(4,5-dichloro-1,3-thiazol-2-yl)oxy]-2,5-dimethylphenyl}-N-ethyl-N-methylimidoformamide], which pest or weed control at 100 ppm (Sphaerotheca fuliginea) is on record?
Answer: ≥ 70%

Question: What about the pest or weed control at 500 ppm (Alternaria solani) of the same molecule?
Answer: ≥ 70%

Question: What about the pest or weed control at 1000 ppm [1] of the same molecule?
Answer: ≥ 70%

Question: What about the pest or weed control at 100 ppm (Podosphaera leucotricha) of the same molecule?
Answer: ≥ 70%

Question: What about the chromatographic logP (physchem) of the same molecule?
Answer: 2.12

Question: And the chromatographic logP (physchem; pH 2.3)?
Answer: 2.04

Question: What about the pest or weed control at 1000 ppm [2] of the same molecule?
Answer: ≥ 70%

Question: Which pest or weed control at 100 ppm (Sphaerotheca fuliginea) does the source give for Cc1cc(Oc2nc(Cl)c(Cl)s2)c(C)cc1/N=C/N(C)C(C)C [Compound 1.3] here?
Answer: ≥ 70%

Question: And the pest or weed control at 500 ppm (Alternaria solani)?
Answer: ≥ 70%

Question: What about the pest or weed control at 1000 ppm [1] of the same molecule?
Answer: ≥ 70%

Question: What about the pest or weed control at 100 ppm (Podosphaera leucotricha) of the same molecule?
Answer: ≥ 70%

Question: What about the chromatographic logP (physchem) of the same molecule?
Answer: 2.18

Question: And the pest or weed control at 1000 ppm [2]?
Answer: ≥ 70%

Question: With CCN(C)/C=N/c1cc(C)c(Oc2nc(C(C)(C)C)c(Cl)s2)cc1C [Compound 1.4] as the molecule, how does the pest or weed control at 100 ppm (Sphaerotheca fuliginea) read?
Answer: ≥ 70%

Question: And the pest or weed control at 500 ppm (Alternaria solani)?
Answer: ≥ 70%

Question: And the pest or weed control at 1000 ppm [1]?
Answer: ≥ 70%

Question: And the pest or weed control at 100 ppm (Podosphaera leucotricha)?
Answer: ≥ 70%

Question: And the chromatographic logP (physchem)?
Answer: 2.76

Question: What about the pest or weed control at 1000 ppm [2] of the same molecule?
Answer: ≥ 70%

Question: For CCN(C)/C=N/c1cc(C)c(Oc2nc(C(F)(F)F)c(Cl)s2)cc1C [Compound 1.5], which pest or weed control at 100 ppm (Sphaerotheca fuliginea) is on record?
Answer: ≥ 70%

Question: And the pest or weed control at 500 ppm (Alternaria solani)?
Answer: ≥ 70%

Question: And the pest or weed control at 1000 ppm [1]?
Answer: ≥ 70%

Question: What about the pest or weed control at 100 ppm (Podosphaera leucotricha) of the same molecule?
Answer: ≥ 70%

Question: And the chromatographic logP (physchem)?
Answer: 2.15

Question: And the pest or weed control at 1000 ppm [2]?
Answer: ≥ 70%

Question: For Cc1cc(Oc2nc(C(C)C)c(Cl)s2)c(C)cc1/N=C/N(C)C(C)C [Compound 1.9], which pest or weed control at 100 ppm (Sphaerotheca fuliginea) is on record?
Answer: ≥ 70%

Question: What about the pest or weed control at 500 ppm (Alternaria solani) of the same molecule?
Answer: ≥ 70%

Question: What about the pest or weed control at 1000 ppm [1] of the same molecule?
Answer: ≥ 70%

Question: What about the pest or weed control at 100 ppm (Podosphaera leucotricha) of the same molecule?
Answer: ≥ 70%

Question: And the chromatographic logP (physchem)?
Answer: 2.57

Question: What about the pest or weed control at 1000 ppm [2] of the same molecule?
Answer: ≥ 70%

Question: For Cc1cc(Oc2nc(Cl)c(Br)s2)c(C)cc1/N=C/N(C)C(C)C [Compound 1.11], which pest or weed control at 100 ppm (Sphaerotheca fuliginea) is on record?
Answer: ≥ 70%

Question: And the pest or weed control at 1000 ppm [1]?
Answer: ≥ 70%

Question: And the pest or weed control at 100 ppm (Podosphaera leucotricha)?
Answer: ≥ 70%

Question: What about the “activity (mortality of eggs)” value (Heliotis virescens) of the same molecule?
Answer: good activity

Question: And the chromatographic logP (physchem)?
Answer: 2.22

Question: What about the pest or weed control at 1000 ppm [2] of the same molecule?
Answer: ≥ 70%

Question: With CCN(C)/C=N/c1cc(C)c(Oc2nc(C)c(Cl)s2)cc1C [Compound 1.12] as the molecule, how does the pest or weed control at 100 ppm (Sphaerotheca fuliginea) read?
Answer: ≥ 70%

Question: What about the pest or weed control at 500 ppm (Alternaria solani) of the same molecule?
Answer: ≥ 70%

Question: And the pest or weed control at 1000 ppm [1]?
Answer: ≥ 70%

Question: And the pest or weed control at 100 ppm (Podosphaera leucotricha)?
Answer: ≥ 70%

Question: And the chromatographic logP (physchem)?
Answer: 1.98

Question: What about the pest or weed control at 1000 ppm [2] of the same molecule?
Answer: ≥ 70%

Question: Which pest or weed control at 100 ppm (Sphaerotheca fuliginea) does the source give for CCN(C)/C=N/c1cc(C)c(Oc2nc(Cl)cs2)cc1C [Compound 1.18] here?
Answer: ≥ 70%

Question: And the pest or weed control at 1000 ppm [1]?
Answer: ≥ 70%

Question: What about the pest or weed control at 100 ppm (Podosphaera leucotricha) of the same molecule?
Answer: ≥ 70%

Question: What about the chromatographic logP (physchem) of the same molecule?
Answer: 1.6

Question: And the pest or weed control at 1000 ppm [2]?
Answer: ≥ 70%

Question: What does the source list for Cc1cc(Oc2nc(Cl)c(C)s2)c(C)cc1/N=C/N(C)C(C)C [Compound 1.23]?
Answer: pest or weed control at 1000 ppm [1]: ≥ 70%; activity (mortality of eggs) (Heliotis virescens): good activity; chromatographic logP (physchem): 1.94; pest or weed control at 1000 ppm [2]: ≥ 70%

Question: Which pest or weed control at 100 ppm (Sphaerotheca fuliginea) does the source give for CCN(C)/C=N/c1cc(C)c(Oc2nc(C(C)C)ns2)cc1C [Compound 2.3] here?
Answer: ≥ 70%

Question: What about the pest or weed control at 500 ppm (Alternaria solani) of the same molecule?
Answer: ≥ 70%

Question: And the pest or weed control at 1000 ppm [1]?
Answer: ≥ 70%

Question: And the pest or weed control at 100 ppm (Podosphaera leucotricha)?
Answer: ≥ 70%

Question: What about the chromatographic logP (physchem) of the same molecule?
Answer: 1.74

Question: What about the pest or weed control at 1000 ppm [2] of the same molecule?
Answer: ≥ 70%
